Bridge positions count the residues as written; N and C are the ends. Peptide text beside a SMILES is read from it.
tested on: 3D in vitro model of blood-brain barrier; assay: Permeation in a 3D in vitro model of blood-brain barrier; format: in vitro ADME, human endothelial cells, rat astrocytes and cortical neurons; settings: 500 nM, 2 h
Protocol: Due to the interest of developing CDNF- and MANF-derived peptides for treatment of CNS diseases with peripheral route of administration, and the fact that macrocyclization can improve cell-penetration and distribution properties of peptides, the ability of the compounds to pass the blood-brain barrier was tested in an established in vitro model of the blood-brain barrier. For this purpose, macrocyclic and linear compounds were incubated at 500 nM for 2 h in a two-compartment in vitro blood-brain barrier model (n=4) followed by sample collection is and LC-MS/MS analysis.
Primary culture of astrocytes. Rat astrocytes were prepared from a E15 embryos. Briefly, pregnant female rats (Wistar, Janvier Labs) of 15 days of gestation were deeply anesthetized in a (CO2 chamber) and then killed by cervical dislocation. Fetuses were collected and immediately placed in ice-cold L15 Leibovitz medium with a 2% penicillin (10,000 U/mL) and streptomycin (10 mg/mL) solution (PS) and 1% bovine serum albumin (BSA). Full brains were treated for 20 min at 37° C. with a trypsin- EDTA solution at a final concentration of 0.05% trypsin and 0.02% EDTA. Dissociated cells were cultured in DMEM 10% fetal calf serum. Purified astrocytes were used at passage 4 (P4).
Culture of human endothelial cells. A vial of HBMEC (Primary Human Brain Microvascular Endothelial Cells, ACBRI 376) was used at a specific passage 8 (P8).
Primary culture of cortical neurons. Rat cortical neurons were cultured as described by Callizot et al., 2013 with modification. Briefly, pregnant female rats (Wistar, Janvier Labs) of […] were deeply anesthetized in a CO2 chamber and then killed by cervical io dislocation. Fetuses were collected and immediately placed in ice-cold L15 Leibovitz medium with a 2% penicillin (10,000 U/mL) and streptomycin (10 mg/mL) solution (PS) and 1% bovine serum albumin (BSA). Cortices were treated for 20 min at 37° C. with a trypsin-EDTA solution at a final concentration of 0.05% trypsin and 0.02% EDTA. The dissociation was stopped by addition of Dulbecco's modified Eagle's medium (DMEM) with 4.5 g/L of glucose, containing is DNAse I grade II (final concentration 0.5 mg/m L) and 10% fetal calf serum (FCS). Cells were mechanically dissociated by three forced passages through the tip of a 10-m1 pipette. Cells were then centrifuged at 515×g for 10 min at 4° C. The pellet resuspended in a defined culture medium consisting of Neurobasal medium with a 2% solution of B27 supplement, 2 mmol/L of L-glutamine, 2% of PS solution, 10 ng/mL of brain-derived neurotrophic factor (BDNF). Viable cells were counted in a Neubauer cytometer, using the trypan blue exclusion test. The cortical neurons were seeded in the bottom of well pre-coated with poly-L-lysine at a density of 255,000 per well in 24-well plate with insert and cultured at 37° C. in an air (95%)-CO2 (5%) incubator. The culture medium was changed every other day.
Co-Culture of endothelial cells, astrocytes and primary cortical neurons. The procedure was performed as previously published (Xue et al., 2013 with modifications, Callizot et al., 2017). Briefly, on day 0, purified astrocytes (P4) were rapidly thawed in a water bath at 37° C. The cells were immediately put in DMEM containing 10% of FCS. Cell suspension was centrifuged at 515×g for 5 min at 4° C. and the pellets were suspended in DMEM F12 containing 10% of FCS. Cells were seeded in the outer side of the insert membrane (PET, 1 μm) at the density of 45,000 cells per insert and cultured at 37° C. in an air (95%)-CO2 (5%) incubator. Thirty-six (36) hours after the astrocytes seeding, HBMEC (P8) were rapidly thawed in a water bath at 37° C. and immediately put in DMEM containing 10% of FCS. Cell suspension was centrifuged at 515×g for 5 min at 4° C. and the pellets were suspended in EGM-2 bullet kit containing 5% of FCS, 1% of PS solution, 1.4 μM of Hydrocortisone, 5 μg/mL of acid ascorbic, 1% of lipid mixture, 10 mM of HEPES, 1 ng/mL of bFGF. […]

Structure (SMILES) | ability to pass through the in vitro blood-brain barrier as compared to linear counterpart
CC[C@H](C)[C@@H]1NC(=O)[C@H](CCC(N)=O)NC(=O)[C@H](CCCCN)NC(=O)[C@H](CC(C)C)NC(=O)[C@H](CCC(=O)O)NC(=O)[C@H](C)NC(=O)[C@H](C(C)C)NC(=O)[C@H](CCCNC(=N)N)NC(=O)[C@H](CCSC)NC(=O)[C@H](CCCCN)NC(=O)[C@H](CCCNC(=N)N)NC(=O)[C@H](CC(C)C)NC(=O)[C@H](CC(=O)O)NC(=O)[C@H](C(C)C)NC(=O)[C@H](CCC(=O)O)NC(=O)[C@H](C)NC(=O)[C@@H]2CSSC[C@H](NC(=O)[C@H](CCC(=O)O)NC(=O)[C@H](CCC(=O)O)NC(=O)CNC(=O)[C@H](Cc3c[nH]c4ccccc34)NC(=O)[C@H](CO)NC(=O)[C@H](Cc3c[nH]cn3)NC(=O)[C@H](CC(C)C)NC1=O)C(=O)N[C@@H](CCCNC(=N)N)C(=O)N[C@@H](C)C(=O)N2 [Compound 2] (cyclo(ACAEVDLRKMRVAELKQILHSWGEECR); disulfide 2-26) | improved ability to pass
CC[C@H](C)[C@@H]1NC(=O)[C@H](CCC(N)=O)NC(=O)[C@H](CCCCN)NC(=O)[C@H](CC(C)C)NC(=O)[C@H](CCC(=O)O)NC(=O)[C@H](C)NC(=O)[C@H](C(C)C)NC(=O)[C@H](CCCNC(=N)N)NC(=O)[C@H](CCSC)NC(=O)[C@H](CCCCN)NC(=O)[C@H](CCC(=O)O)NC(=O)[C@H](C)NC(=O)[C@@H]2CSSC[C@H](NC(=O)[C@H](CCC(=O)O)NC(=O)[C@H](CCC(=O)O)NC(=O)CNC(=O)[C@H](Cc3c[nH]c4ccccc34)NC(=O)[C@H](CO)NC(=O)[C@H](Cc3c[nH]cn3)NC(=O)[C@H](CC(C)C)NC1=O)C(=O)N[C@@H](CCCNC(=N)N)C(=O)N[C@@H](C)C(=O)N2 [Compound 6] (cyclo(ACAEKMRVAELKQILHSWGEECR); disulfide 2-22) | improved ability to pass
CC[C@H](C)[C@@H]1NC(=O)[C@H](CCCCN)NC(=O)[C@H](CCCCN)NC(=O)[C@H](CC(C)C)NC(=O)[C@H](CCC(=O)O)NC(=O)[C@H](CCCCN)NC(=O)[C@H](C(C)C)NC(=O)[C@H](CCCNC(=N)N)NC(=O)[C@H](CC(C)C)NC(=O)[C@H](CCCCN)NC(=O)[C@H](CCC(=O)O)NC(=O)[C@H](C)NC(=O)[C@@H]2CSSC[C@H](NC(=O)[C@H]([C@@H](C)O)NC(=O)[C@H](CCC(=O)O)NC(=O)CNC(=O)[C@H](Cc3c[nH]c4ccccc34)NC(=O)[C@H](CC(=O)O)NC(=O)[C@H](CC(=O)O)NC(=O)[C@H](CC(C)C)NC1=O)C(=O)N[C@@H](CCCCN)C(=O)NCC(=O)N2 [Compound 8] (cyclo(AEKLRVKELKKILDDWGETCKGC); disulfide 20-23) | improved ability to pass
C[C@@H]1NC(=O)[C@@H]2CSSC[C@H](NC(=O)[C@H](CCC(=O)O)NC(=O)[C@H](CCC(=O)O)NC(=O)CNC(=O)[C@H](Cc3c[nH]c4ccccc34)NC(=O)[C@H]([C@@H](C)O)NC(=O)[C@H](CCCCN)NC(=O)[C@H](CCC(=O)O)NC1=O)C(=O)N[C@@H](CCCNC(=N)N)C(=O)N[C@@H](C)C(=O)N2 [Compound 12, WGEECRACAEKT] (cyclo(ACAEKTWGEECR); disulfide 2-11) | improved ability to pass
C[C@@H]1NC(=O)[C@@H]2CSSC[C@H](NC(=O)[C@H]([C@@H](C)O)NC(=O)[C@H](CCC(=O)O)NC(=O)CNC(=O)[C@H](Cc3c[nH]c4ccccc34)NC(=O)[C@H](CO)NC(=O)[C@H](CCCCN)NC(=O)[C@H](CCC(=O)O)NC1=O)C(=O)N[C@@H](CCCCN)C(=O)NCC(=O)N2 [Compound 14, WGETCKGCAEKS] (cyclo(AEKSWGETCKGC); disulfide 9-12) | improved ability to pass
C[C@@H]1NC(=O)CNC(=O)[C@H](CCCNC(=N)N)NC(=O)[C@@H]2CSSC[C@H](NC1=O)C(=O)N[C@@H](C)C(=O)N[C@@H](CCC(=O)O)C(=O)N[C@@H](CCCCN)C(=O)N[C@@H]([C@@H](C)O)C(=O)N[C@@H](Cc1c[nH]c3ccccc13)C(=O)NCC(=O)N[C@@H](CCC(=O)O)C(=O)N[C@@H](CCC(=O)O)C(=O)N2 [Compound 24, WGEECRGACAEKT] (cyclo(ACAEKTWGEECRG); disulfide 2-11) | improved ability to pass
C[C@@H]1NC(=O)[C@@H]2CSSC[C@H](NC(=O)[C@H]([C@@H](C)O)NC(=O)[C@H](CCC(=O)O)NC(=O)CNC(=O)[C@H](Cc3c[nH]c4ccccc34)NC(=O)[C@H](CO)NC(=O)[C@H](CCCCN)NC(=O)[C@H](CCC(=O)O)NC1=O)C(=O)N[C@@H](CCCCN)C(=O)NCC(=O)NCC(=O)N2 [Compound 26, WGETCKGGCAEKS] (cyclo(AEKSWGETCKGGC); disulfide 9-13) | improved ability to pass

— patent US20230391841A1, “MACROCYCLIC PEPTIDES” (Herantis Pharma OYJ, priority 2019, published 2023)
